These molecules were tested against T1, recombinant human GST-SYK (Homo sapiens, UniProt P43405) (assay: Homogeneous Time-Resolved Fluorescence (HTRF) assay for the recombinant human Syk enzyme). Settings: GST-hSYK 5 pM, ATP 25 μM, 10-dose titration 10 μM to 0.508 nM; read-out: IC50.
T1 construct: purchased Carna Biosciences 08-176
Type: biochemical
Experimental: Homogeneous Time-Resolved Fluorescence (HTRF) Assay for the Recombinant Human Syk Enzyme
A recombinant GST-hSYK fusion protein was used to measure potency of compounds to inhibit human Syk activity. […] Final volume of the reaction was 10 μL. Phosphorylation of the peptide was allowed to proceed for 45 minutes at room temperature. To quench the reaction and detect the phosphorylated product, 2 nM of a Europium-anti-phosphotyrosine antibody (Perkin Elmer #AD0161) and 70 nM SA-APC (Perkin-Elmer #CR130-100) were added together in 15 mM Tris pH 7.5, 40 mM EDTA, 0.01% tween 20. Final volume of the quenching solution was 10 μL. The resulting HTRF signal was measured after 30 minutes on an EnVision (Perkin-Elmer) reader using a time-resolved fluorescence protocol.
Molecule `Cc1cc(C)nc(Nc2cc(N)cnc2C(N)=O)c1` [Example 9, 5-amino-3-[(4,6-dimethylpyridin-2-yl)amino]pyridine-2-carboxamide] has an IC50 of 2900 nM.

Same assay, conditions: GST-hSYK 5 pM, ATP 25 μM, 10-dose titration 10 μM to 0.508 nM; read-out: rhSYK Activity (IC50 rating)
`NC(=O)c1ncc(N[C@H]2[C@@H](N)CCCC2(F)F)cc1Nc1ccn(-c2ccc(F)cc2)n1` [Example 1.87, 5-{[(1S,6S)-6-amino-2,2-difluorocyclohexyl]amino}-3-{[1-(4-fluorophenyl)-1H-pyrazol-3-yl]amino}pyridine-2-carboxamide] gave an IC50 of less than 10 nM. For `Cc1nc(Nc2cc(N[C@@H]3CCCC[C@@H]3N)cnc2C(N)=O)ccc1-c1cccc([N+](=O)[O-])c1` [Example 3.3, 5-{[(1R,2S)-2-aminocyclohexyl]amino}-3-{[6-methyl-5-(3-nitrophenyl)pyridin-2-yl]amino}pyridine-2-carboxamide], the IC50 was less than 10 nM. For `Cc1cc(C)nc(Nc2cc(NC(CN)c3ccccc3)cnc2C(N)=O)c1` (stereo not drawn) [Example 1.23, 5-[(2-amino-1-phenylethyl)amino]-3-[(4,6-dimethylpyridin-2-yl)amino]pyridine-2-carboxamide], the IC50 was 10 to 100 nM. For `Cc1cncc(Nc2cc(N[C@@H]3CCCC[C@@H]3N)cnc2C(N)=O)n1` [Example 1.121, 5-{[(1R,2S)-2-aminocyclohexyl]amino}-3-[(6-methylpyrazin-2-yl)amino]pyridine-2-carboxamide], the IC50 was less than 10 nM. `Cc1cc(C)nc(Nc2cc(NC(CN)c3ccccc3)cnc2C(N)=O)c1` (stereo not drawn) [Example 1.21, 5-[(2-amino-1-phenylethyl)amino]-3-[(4,6-dimethylpyridin-2-yl)amino]pyridine-2-carboxamide] showed an IC50 of less than 10 nM. `Cc1cc(C)nc(Nc2cc(NC(C)CN)cnc2C(N)=O)c1` (stereo not drawn) [Example 1.30, 5-[(2-amino-1-methylethyl)amino]-3-[(4,6-dimethylpyridin-2-yl)amino]pyridine-2-carboxamide] showed an IC50 of less than 10 nM. In the case of `CCc1cccc(Nc2cc(NC[C@H](C)N)cnc2C(N)=O)n1` [Example 1.94, 5-{[(2S)-2-aminopropyl]amino}-3-[(6-ethylpyridin-2-yl)amino]pyridine-2-carboxamide], the IC50 is reported as less than 10 nM. With `NC(=O)c1ncc(N[C@@H]2CCCC[C@@H]2N)cc1Nc1cccc(-c2cn(Cc3ccccc3)nn2)n1` [Example 1.101, 5-{[(1R,2S)-2-aminocyclohexyl]amino}-3-{[6-(1-benzyl-1H-1,2,3-triazol-4-yl)pyridin-2-yl]amino}pyridine-2-carboxamide] the IC50 was less than 10 nM. `Cc1cc(C)nc(Nc2cc(NC(C)C(N)=O)cnc2C(N)=O)c1` (stereo not drawn) [Example 1.39, 5-[(2-amino-1-methyl-2-oxoethyl)amino]-3-[(4,6-dimethylpyridin-2-yl)amino]pyridine-2-carboxamide] was tested, and the IC50 was 10 to 100 nM. `Cc1cc(C)nc(Nc2cc(NCC3(N)CCOC3)cnc2C(N)=O)c1` (stereo not drawn) [Example 1.35, 5-{[(3-aminotetrahydrofuran-3-yl)methyl]amino}-3-[(4,6-dimethylpyridin-2-yl)amino]pyridine-2-carboxamide] gave an IC50 of 10 to 100 nM. In the case of `Cn1ccc(Nc2cc(N[C@@H]3CCCC[C@@H]3N)cnc2C(N)=O)n1` [Example 1.33, 5-{[(1R,2S)-2-aminocyclohexyl]amino}-3-[(1-methyl-1H-pyrazol-3-yl)amino]pyridine-2-carboxamide], the IC50 is reported as 10 to 100 nM. `Cc1nc(Nc2cc(N[C@@H]3CCCC[C@@H]3N)cnc2C(N)=O)ccc1-c1ccc2c(c1)n(C)c(=O)n2C` [Example 3.31, 5-{[(1R,2S)-2-aminocyclohexyl]amino}-3-{[5-(1,3-dimethyl-2-oxo-2,3-dihydro-1H-benzimidazol-5-yl)-6-methylpyridin-2-yl]amino}pyridine-2-carboxamide] was tested, and the IC50 was less than 10 nM. With `Cc1cc(C)nc(Nc2cc(N)cnc2C(N)=O)c1` [Example 9, 5-amino-3-[(4,6-dimethylpyridin-2-yl)amino]pyridine-2-carboxamide] the IC50 was 1000 to 10000 nM. Molecule `Cc1cc(Nc2cc(N[C@@H]3CCCC[C@@H]3N)cnc2C(N)=O)nc(-c2cnn3c2CCCC3)c1` [Example 1.113, 5-{[(1R,2S)-2-aminocyclohexyl]amino}-3-{[4-methyl-6-(4,5,6,7-tetrahydropyrazolo[1,5-a]pyridin-3-yl)pyridin-2-yl]amino}pyridine-2-carboxamide] has an IC50 of less than 10 nM.
